This note sets out measurements from ChEMBL document CHEMBL5104111, “Boron-Containing heterocycles as promising pharmacological agents” (Bioorg Med Chem, 2022).

Converted amounts (≈) assume the structure as drawn.

The experiment relates to Mycobacterium tuberculosis variant bovis. The experiment can be described thus: Antibacterial activity against Mycobacterium bovis BCG assessed as bacterial growth inhibition. It is filed as functional.
In the case of `O=C(NCCOCCOCCNC(=O)c1ccc2c(c1)B(O)OC2)c1ccc2c(c1)COB2O`, the MIC (in general, the smallest concentration in the dilution series that meets the test's criterion for growth inhibition) worked out at 0.39 µM (≈ 0.183 µg/mL). Then `O=C(NCCCOCCOCCOCCCNC(=O)c1ccc2c(c1)B(O)OC2)c1ccc2c(c1)COB2O`, with 0.39 µM (≈ 0.211 µg/mL).

For the compound `O=C(NCCNC(=O)c1ccc2c(c1)B(O)OC2)c1ccc2c(c1)B(O)OC2`, the MIC was found to be 0.78 µM (≈ 0.296 µg/mL).
